Laboratory results published in US8445496B2, “Crystalline forms of 4-[(2,4-dichloro-5-methoxyphenyl)amino]-6-methoxy-7-[3-(4-methyl-1-piperazinyl)propoxy]-3-quinolinecarbonitrile and methods of preparing the same” (Wyeth LLC, priority 2005, dated 2013).
Values after ≈ are worked out from the molar mass of the structure shown. “Also recorded” adds a separate entry of the source.

Legend:
[1] = Conversion of crystal form on treatment with water; type: physicochemical; details: for form conversion in heated water: water at 90° C. or 95° C.
Procedure: Forms II, III, IV and Form VI can all be transformed into Form I by treatment with water, e.g. by heating in water. The water may be at room temperature. The water may be heated to at least about 90° C., and as high as at least about 95° C.
Form V is the anhydrous form, producing substantially Pattern E in FIGS. 1 and 8 when scanned by XRD, and has the highest transition temperature of all the polymorphic forms, i.e., about 148° C. It is also readily converted to Form I by treatment with heated water. The water is heated to at least about 90° C., and more preferably is heated to at least about 95° C. […] This hydrated form is different from either Form I or V, as shown by the XRD scan in FIG. 4.
FIG. 3. This is a differential scanning calorimeter (DSC) plot and a theromogravimetric analysis (TGA) plot of Form V after suspension in water for two months and ten days at room temperature.

[2] = Solubility in water and formulation vehicles
physchem = details: Table 4, (batch size 95, 50, 120, 54, 18.5, 550 g)
[3] = Hygroscopicity by dynamic vapor sorption; type: physicochemical; details: 0% to 90% RH, monohydrate
Procedure: The hydroscopicity of the anhydrous Form V and the hydrated forms was determined using dyanamic vapor sorption, including the plot for Form I shown in FIG. 2. This was performed under the following conditions. RH was set at 0%, 30%, 52.5%, 75% and 90%, with the sample exposed for 3 hours at each RH for two full cycles.

[4] = Solid-state stability on exposure to light, humidity and heat (XRD and HPLC; water loss); type: physicochemical
[5] = Table 4, (batch size 95, 50, 120, 54, 18.5, 550 g), listed as Pattern D

For `CC(C)O.COc1cc(Nc2c(C#N)cnc3cc(OCCCN4CCN(C)CC4)c(OC)cc23)c(Cl)cc1Cl` [Form III, 4-[(2,4-dichloro-5-methoxyphenyl)amino]-6-methoxy-7-[3-(4-methyl-1-piperazinyl)propoxy]-3-quinolinecarbonitrile monoisopropyl alcoholate], the “form conversion in heated water” value [1] was “Converts to “I” in 95 °C”.

In the case of `CO.COc1cc(Nc2c(C#N)cnc3cc(OCCCN4CCN(C)CC4)c(OC)cc23)c(Cl)cc1Cl` [Form VI, 4-[(2,4-dichloro-5-methoxyphenyl)amino]-6-methoxy-7-[3-(4-methyl-1-piperazinyl)propoxy]-3-quinolinecarbonitrile methanolate], the “form conversion in heated water” value [1] is reported as “Converts to “I” in 95 °C”.

In the case of `COc1cc(Nc2c(C#N)cnc3cc(OCCCN4CCN(C)CC4)c(OC)cc23)c(Cl)cc1Cl` [4-[(2,4-dichloro-5-methoxyphenyl)amino]-6-methoxy-7-[3-(4-methyl-1-piperazinyl)propoxy]-3-quinolinecarbonitrile], the “solubility enhancement with about 2% Tween80” value ([2]; about 2% Tween80) is reported as “about 100 fold”, the solubility ([2]; about 2% Tween80, aqueous with cosolvent or surfactant or cyclodextrin, solubility with addition of about 2% Tween80, about 2% Tween80 (detergent)) is reported as 100 to 400 µg/mL (≈ 189 to 754 µM) and the solubility ([2]; aqueous with cosolvent or surfactant or cyclodextrin, solubility with addition of about 0.06% acetic acid (in-situ acetate salt vehicle), about 2% Tween80 plus about 0.06% acetic acid) is reported as 3000 to 4000 µg/mL. For the same compound, the solubility ([2]; de-ionized water, pH 7.2, water, solubility in de-ionized water, partially ionized, resulting pH 7.2) was 1.8 µg/mL (≈ 3.39 µM), the “solubility enhancement with about 0.06% acetic acid” value ([2]; in-situ acetate salt vehicle) was about 1000 fold and the solubility ([2]; pH 8, aqueous buffer, intrinsic (neutral form) solubility, pH 8.0) was about 0.06 µg/mL (≈ 0.113 µM). For the same compound, the solubility ([2]; stomach acid, simulated gastric fluid, solubility in stomach acid) was over 200000 µg/mL.

In the case of `COc1cc(Nc2c(C#N)cnc3cc(OCCCN4CCN(C)CC4)c(OC)cc23)c(Cl)cc1Cl.O` [Form I, 4-[(2,4-dichloro-5-methoxyphenyl)amino]-6-methoxy-7-[3-(4-methyl-1-piperazinyl)propoxy]-3-quinolinecarbonitrile monohydrate], the “Solubility, 2% Tween80/0.5% MC 0.06% acetic acid” value ([2]; Table 4, (batch size 95, 50, 120, 54, 18.5, 550 g), listed as Pattern A, monohydrate) is reported as 4.25 (pH 5.7) mg/mL, the solubility (physchem; aqueous with cosolvent or surfactant or cyclodextrin, 2% Tween80/0.5% MC 0.06% acetic acid) is reported as 4000 µg/mL and the solubility (physchem; pH 7.2, water, Water) is reported as 1.8 µg/mL. For the same compound, the hygroscopicity [3] was “not hygroscopic; also recorded: non-hydroscopic”, the “loss of water at 0% relative humidity” value ([4]; 0% relative humidity for 10 days) was “does not lose water” and the “stability to humidity (XRD and HPLC)” value ([4]; 75% humidity at 40° C. for 3 months) was “substantially pure and physically unchanged”. For the same compound, the “stability to heat (XRD and HPLC)” value ([4]; 90° C. for 2 weeks) was “substantially pure and physically unchanged”, the “stability to light (XRD and HPLC)” value ([4]; 510 foot-candles (~5490 lux) light for two weeks) was “substantially pure and physically unchanged” and the “loss of water on heating” value ([4]; heated to 90° C. for over 100 hours) was “does not lose water”.

With `COc1cc(Nc2c(C#N)cnc3cc(OCCCN4CCN(C)CC4)c(OC)cc23)c(Cl)cc1Cl` [Form IV, 4-[(2,4-dichloro-5-methoxyphenyl)amino]-6-methoxy-7-[3-(4-methyl-1-piperazinyl)propoxy]-3-quinolinecarbonitrile] the solubility ([2]; 2% Tween80/0.5% MC 0.06% acetic acid, aqueous with cosolvent or surfactant or cyclodextrin, Solubility, Table 4, (batch size 95, 50, 120, 54, 18.5, 550 g)) was 3500 µg/mL (≈ 6600 µM), the solubility ([2]; 2% Tween 80/03% MC, aqueous with cosolvent or surfactant or cyclodextrin, Solubility, Table 4, (batch size 95, 50, 120, 54, 18.5, 550 g)) was 70 µg/mL (≈ 132 µM) and the “Solubility, 2% Tween80/0.5% MC 0.06% acetic acid” value [2, 5] was 2.68 (pH 5.2) mg/mL. For the same compound, the “Solubility, 2% Tween 80/03% MC” value [2, 5] was 0.06 (pH 7.8) mg/mL and the “form conversion in heated water” value ([1]; listed as D) was “Converts to “I” in 90 °C”.

With `COc1cc(Nc2c(C#N)cnc3cc(OCCCN4CCN(C)CC4)c(OC)cc23)c(Cl)cc1Cl` [Form II, 4-[(2,4-dichloro-5-methoxyphenyl)amino]-6-methoxy-7-[3-(4-methyl-1-piperazinyl)propoxy]-3-quinolinecarbonitrile] the “form conversion in heated water” value ([1]; listed as B) was “Converts to “I” in 95 °C”.

With `COc1cc(Nc2c(C#N)cnc3cc(OCCCN4CCN(C)CC4)c(OC)cc23)c(Cl)cc1Cl` [Form V, 4-[(2,4-dichloro-5-methoxyphenyl)amino]-6-methoxy-7-[3-(4-methyl-1-piperazinyl)propoxy]-3-quinolinecarbonitrile] the “form change in water at room temperature” value ([1]; suspended in water at room temperature, 2 months (two months and ten days), DSC, TGA, XRD) was “converted into a hydrated Form II; also recorded: hydrated to a metastable hydrate crystal form” and the “form conversion in heated water” value [1] was “Converts to “I” in 95 °C”.
